Calls of active or inactive are those of the source.
Assays:
[1] = inhibitors of TRPM1-promoter reporter in SK-MEL-5 – cell-based, luciferase, dry powder, set 9, MITF inhibitor project, dose response (AID 651588); type: functional
[2] = MITF Orthogonal Assay: MALME3 CTG Assay Measured in Cell-Based System Using Plate Reader - 2084-04_Inhibitor_Dose_DryPowder_Activity_Set6.; type: functional; conditions: MALME-3
[3] = growth inhibition of SK-MEL-5 melanoma cells – cell-based, CellTiter-Glo luminescence, dry powder, set 8, orthogonal assay for MITF inhibitor project, dose response (AID 651586); type: functional
[4] = growth inhibition of MALME3 cells – cell-based, CellTiter-Glo luminescence, dry powder, set 5, orthogonal assay for MITF inhibitor project, dose response (AID 651584); type: functional; conditions: MALME-3
[5] = MITF Orthogonal Assay: SK-MEL-5 CTG Assay Measured in Cell-Based System Using Plate Reader - 2084-02_Inhibitor_Dose_DryPowder_Activity_Set7.; type: functional
[6] = MITF: Counter assay: A375 proliferation Measured in Cell-Based System Using Plate Reader - 2084-03_Inhibitor_Dose_DryPowder_Activity_Set8.; type: functional; conditions: A-375
[7] = cytotoxicity in MITF-independent A375 cells – cell-based, CellTiter-Glo luminescence, dry powder, set 9, counter-screen for MITF modulator project, dose response (AID 651591); type: functional; conditions: A-375
[8] = inhibitors of TRPM1-promoter reporter in SK-MEL-5 – cell-based, luciferase, dry powder, set 8, MITF inhibitor project, dose response (AID 624430); type: functional
[9] = molecular target: FAD-linked sulfhydryl oxidase ALR (Homo sapiens, UniProt P55789); experiment: ALR-catalysed DTT oxidation blockers – biochemical, H2O2 detection, luminescence, cherry-pick, dose response (AID 493248)
Chain of FAD-linked sulfhydryl oxidase ALR (P55789 whole entry): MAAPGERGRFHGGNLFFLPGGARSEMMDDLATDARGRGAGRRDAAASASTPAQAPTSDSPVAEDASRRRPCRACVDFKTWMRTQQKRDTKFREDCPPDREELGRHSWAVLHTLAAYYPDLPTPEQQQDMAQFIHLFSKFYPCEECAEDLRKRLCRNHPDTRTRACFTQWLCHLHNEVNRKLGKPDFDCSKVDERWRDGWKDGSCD

[10] = molecular target: T1, Methionyl-tRNA synthetase, putative (Trypanosoma brucei brucei, UniProt Q38C91); type: functional, Trypanosoma brucei brucei strain 927/4 GUTat10.1
T1 sequence (Q38C91 whole entry): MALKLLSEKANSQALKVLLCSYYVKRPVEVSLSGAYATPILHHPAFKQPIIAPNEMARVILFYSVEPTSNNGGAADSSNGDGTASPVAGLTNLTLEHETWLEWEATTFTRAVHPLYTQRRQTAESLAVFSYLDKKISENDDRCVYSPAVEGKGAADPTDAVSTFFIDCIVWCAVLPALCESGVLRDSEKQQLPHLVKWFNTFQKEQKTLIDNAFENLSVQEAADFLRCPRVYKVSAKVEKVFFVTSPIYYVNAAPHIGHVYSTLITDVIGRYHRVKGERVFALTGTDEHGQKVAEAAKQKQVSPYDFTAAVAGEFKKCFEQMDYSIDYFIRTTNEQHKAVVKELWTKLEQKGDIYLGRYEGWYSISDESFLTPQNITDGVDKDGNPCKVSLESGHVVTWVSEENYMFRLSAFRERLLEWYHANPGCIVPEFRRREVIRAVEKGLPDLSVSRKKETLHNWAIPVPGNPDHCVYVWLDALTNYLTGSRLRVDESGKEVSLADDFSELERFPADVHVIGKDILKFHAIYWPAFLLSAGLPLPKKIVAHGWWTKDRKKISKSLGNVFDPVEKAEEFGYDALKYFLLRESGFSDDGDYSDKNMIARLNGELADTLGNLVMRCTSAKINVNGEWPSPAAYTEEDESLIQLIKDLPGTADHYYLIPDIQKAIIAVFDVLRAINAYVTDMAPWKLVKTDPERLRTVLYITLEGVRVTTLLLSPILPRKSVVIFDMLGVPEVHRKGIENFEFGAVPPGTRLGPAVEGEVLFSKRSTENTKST

[11] = Counterscreen for inhibitors of Trypanosoma brucei methionyl tRNA synthetase (MetRS): Luminescence-based cell-based high throughput dose response assay to identify compounds that are cytotoxic to Jurkat human T lymphocyte cells.; type: functional
[12] = molecular target: T1, Methionyl-tRNA synthetase, putative; type: functional, Trypanosoma brucei brucei strain 927/4 GUTat10.1; remark: listed apart in the source
[13] = Late stage counterscreen for inhibitors of Trypanosoma brucei methionyl tRNA synthetase (MetRS): Luminescence-based cell-based high throughput dose response assay to identify compounds that are cytotoxic to Jurkat human T lymphocyte cells.; type: functional
[14] = molecular target: Paired box protein Pax-8 (Homo sapiens, UniProt Q06710); experiment: PAX8 transcriptional activity inhibition in RMG-I – RMG-I cells, luciferase, cherry-pick, dose response (AID 687027); type: functional, cell-based;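 also: luciferase reporter driven by Pax8 target thyroperoxidase promoter measured by SteadyGlo luminescence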
Chain of Paired box protein Pax-8 (Q06710 whole entry): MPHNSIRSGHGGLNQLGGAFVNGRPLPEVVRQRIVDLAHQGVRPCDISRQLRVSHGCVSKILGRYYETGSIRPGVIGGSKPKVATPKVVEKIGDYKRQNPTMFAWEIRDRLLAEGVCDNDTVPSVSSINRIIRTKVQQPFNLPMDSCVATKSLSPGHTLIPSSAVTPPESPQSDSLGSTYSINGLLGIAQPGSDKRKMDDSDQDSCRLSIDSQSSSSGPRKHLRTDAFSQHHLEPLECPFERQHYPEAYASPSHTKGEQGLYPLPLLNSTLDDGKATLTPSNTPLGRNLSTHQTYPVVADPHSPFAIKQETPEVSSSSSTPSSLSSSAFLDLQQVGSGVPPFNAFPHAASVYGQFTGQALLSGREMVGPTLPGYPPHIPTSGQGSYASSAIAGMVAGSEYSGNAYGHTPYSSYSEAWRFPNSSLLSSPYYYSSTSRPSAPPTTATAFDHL

[15] = toxicity toward immortalized ovarian surface epithelium – cell-based, plate reader, dry powder samples, cytotoxicity control for PAX8 inhibitor project, dose response (AID 743045); type: functional
[16] = reduced cellular PGC1a acetyl-lysine signal – cell-based, cherry-picked samples, dose response (AID 720514); type: functional;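 also: potency may reflect raised or lowered acetylation signal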
[17] = OVCAR-3 cell viability loss – plate reader, dry powder samples, PAX8 inhibitor project, dose response (AID 743044); type: functional, cell-based
[18] = IGROV1 cell killing – plate reader, dry powder samples, PAX8 inhibitor project, dose response (AID 743043); type: functional, cell-based; conditions: IGROV-1
[19] = general cell-killing toxicity readout – plate reader, dry powder samples, cytotoxicity control for PAX8 inhibitor project, dose response (AID 743021); type: functional, cell-based
[20] = test system: HEK293; experiment: inhibition of NOD1-driven NF-kB reporter – cell-based, luminescence, uHTS, primary screen (AID 1578); type: functional; conditions: Homo sapiens
[21] = test system: HEK293; experiment: cells; type: functional, cell-based; conditions: Homo sapiens
[22] = test system: HEK293; experiment: cells; type: functional, cell-based; conditions: Homo sapiens; remark: listed apart in the source
[23] = molecular target: Nucleotide-binding oligomerization domain-containing protein 2 (Homo sapiens, UniProt Q9HC29); experiment: inhibition of NOD2-driven NF-kB reporter – cell-based, luminescence, uHTS, HEK293 (AID 1566); type: functional
Chain of Nucleotide-binding oligomerization domain-containing protein 2 (Q9HC29 whole entry, the tested form may be a part): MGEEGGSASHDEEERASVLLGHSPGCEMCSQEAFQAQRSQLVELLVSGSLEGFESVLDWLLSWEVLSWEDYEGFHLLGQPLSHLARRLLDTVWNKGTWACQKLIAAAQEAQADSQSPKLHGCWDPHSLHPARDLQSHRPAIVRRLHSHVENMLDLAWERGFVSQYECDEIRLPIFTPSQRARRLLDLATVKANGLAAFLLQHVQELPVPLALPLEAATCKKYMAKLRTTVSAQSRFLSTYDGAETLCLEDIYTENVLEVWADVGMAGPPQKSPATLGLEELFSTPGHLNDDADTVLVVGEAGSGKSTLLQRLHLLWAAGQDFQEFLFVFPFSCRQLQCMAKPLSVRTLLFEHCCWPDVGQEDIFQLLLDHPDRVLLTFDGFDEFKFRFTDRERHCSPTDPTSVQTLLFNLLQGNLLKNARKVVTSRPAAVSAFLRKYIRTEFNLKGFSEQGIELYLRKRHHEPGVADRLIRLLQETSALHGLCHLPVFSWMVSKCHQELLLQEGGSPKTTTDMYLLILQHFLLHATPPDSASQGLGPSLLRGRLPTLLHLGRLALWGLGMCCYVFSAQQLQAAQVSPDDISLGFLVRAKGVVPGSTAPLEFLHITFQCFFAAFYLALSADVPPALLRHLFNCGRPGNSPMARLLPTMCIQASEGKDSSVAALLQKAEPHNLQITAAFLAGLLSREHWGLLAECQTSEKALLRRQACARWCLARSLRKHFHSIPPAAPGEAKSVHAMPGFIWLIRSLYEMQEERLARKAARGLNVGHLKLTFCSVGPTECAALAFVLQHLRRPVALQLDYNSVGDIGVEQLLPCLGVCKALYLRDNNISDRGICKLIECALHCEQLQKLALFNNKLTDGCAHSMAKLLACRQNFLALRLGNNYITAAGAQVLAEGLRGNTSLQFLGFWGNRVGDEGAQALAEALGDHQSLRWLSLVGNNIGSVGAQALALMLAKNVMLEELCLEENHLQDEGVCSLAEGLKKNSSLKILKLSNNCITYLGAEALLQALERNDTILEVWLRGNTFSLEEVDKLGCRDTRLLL

[24] = test system: HEK293; experiment: NOD2 signaling inhibitors in MDP-stimulated cells, cell-based, uHTS, luminescence (AID 2001); type: functional; conditions: Homo sapiens
[25] = Trypanosoma cruzi growth suppression in host cells – NIH3T3 host cells, beta-gal luminescence, confirmation (AID 2044); type: functional, cell-based;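 also: intracellular parasites grown in NIH/3T3 mouse fibroblasts as host cells; luminescent beta-galactosidase reporter signal from transgenic T. cruzi replicating inside host cells; inhibitors lower the luminescence signal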
[26] = test system: HEK293; experiment: cells; type: functional, cell-based; conditions: Homo sapiens; remark: listed apart in the source
[27] = NIH3T3 cell viability loss – ATP luminescence, mouse fibroblasts, counter-screen, dose response (AID 2010); type: functional, cell-based;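 also: cells exposed to compound for about 90 hours before reading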
[28] = molecular target: T2, CAAX prenyl protease 2 (Saccharomyces cerevisiae S288c, UniProt Q03530); type: biochemical
T2 sequence (Q03530 whole entry): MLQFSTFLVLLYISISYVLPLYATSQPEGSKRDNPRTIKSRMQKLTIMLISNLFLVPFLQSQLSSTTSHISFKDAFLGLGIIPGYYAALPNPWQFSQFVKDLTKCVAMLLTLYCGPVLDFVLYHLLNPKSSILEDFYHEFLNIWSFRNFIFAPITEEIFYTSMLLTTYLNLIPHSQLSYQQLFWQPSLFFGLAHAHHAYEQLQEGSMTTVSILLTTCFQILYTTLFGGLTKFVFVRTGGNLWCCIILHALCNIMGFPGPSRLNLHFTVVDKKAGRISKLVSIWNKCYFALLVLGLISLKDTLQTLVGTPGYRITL

[29] = test system: INS1; experiment: INS-1E survival protection against cytokine death – cell-based, luminescence, retest, dose response (AID 449756); type: functional; conditions: Rattus norvegicus;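 also: cell death triggered by IL-1 beta plus TNF-alpha plus IFN-gamma mixture; protective hits raise ATP signal compared with cytokine alone wells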
[30] = reduction of Shn3 3'UTR-driven luciferase in osteoblasts – cell-based, Clone20 osteoblasts, firefly luciferase, cherry-picked, dose response (AID 624132); type: functional;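 also: firefly luciferase luminescence from reporter carrying the Shn3 3'UTR in osteoblasts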
[31] = molecular target: T3, Corticotropin-releasing factor receptor 2/Corticotropin-releasing factor-binding protein (Homo sapiens, UniProt P24387+Q13324); experiment: activators of CRF receptor 2 with binding protein – uHTS hits, confirmation (AID 602473); type: functional; conditions: read-out: EC50_Mean
T3 sequence (Q13324 whole entry): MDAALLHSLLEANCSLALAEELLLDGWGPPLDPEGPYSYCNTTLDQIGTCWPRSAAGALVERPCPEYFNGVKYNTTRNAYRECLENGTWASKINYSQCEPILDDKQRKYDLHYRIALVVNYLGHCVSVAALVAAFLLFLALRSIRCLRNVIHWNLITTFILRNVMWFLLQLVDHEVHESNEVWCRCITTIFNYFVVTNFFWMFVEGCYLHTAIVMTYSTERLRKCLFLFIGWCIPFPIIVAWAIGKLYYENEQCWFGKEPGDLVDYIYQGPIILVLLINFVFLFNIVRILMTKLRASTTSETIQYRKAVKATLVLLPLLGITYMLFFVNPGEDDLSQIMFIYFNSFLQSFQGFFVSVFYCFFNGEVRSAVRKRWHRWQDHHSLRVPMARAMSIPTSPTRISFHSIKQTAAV
T3 sequence (P24387 whole entry): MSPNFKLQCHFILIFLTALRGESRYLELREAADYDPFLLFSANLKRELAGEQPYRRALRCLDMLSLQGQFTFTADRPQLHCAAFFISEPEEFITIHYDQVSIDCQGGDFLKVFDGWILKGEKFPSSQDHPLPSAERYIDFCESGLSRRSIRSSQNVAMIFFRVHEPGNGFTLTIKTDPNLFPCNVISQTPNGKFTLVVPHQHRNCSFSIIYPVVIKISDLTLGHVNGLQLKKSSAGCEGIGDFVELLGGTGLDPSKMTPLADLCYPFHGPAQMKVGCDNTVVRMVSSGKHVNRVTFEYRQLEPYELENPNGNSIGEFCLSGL

[32] = molecular target: Protein Wnt-3a (Mus musculus, UniProt P27467); experiment: antagonism of Wnt3a pathway luciferase reporter – Wnt-LIGHT cells, luminescence, selectivity assay for Gli-SUFU antagonist project, dose response (AID 651570); type: functional; conditions: read-out: IC50_Mean;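 also: Wnt-LIGHT reporter cells stimulated with conditioned medium from Wnt3a-producing cells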
Chain of Protein Wnt-3a (P27467 whole entry): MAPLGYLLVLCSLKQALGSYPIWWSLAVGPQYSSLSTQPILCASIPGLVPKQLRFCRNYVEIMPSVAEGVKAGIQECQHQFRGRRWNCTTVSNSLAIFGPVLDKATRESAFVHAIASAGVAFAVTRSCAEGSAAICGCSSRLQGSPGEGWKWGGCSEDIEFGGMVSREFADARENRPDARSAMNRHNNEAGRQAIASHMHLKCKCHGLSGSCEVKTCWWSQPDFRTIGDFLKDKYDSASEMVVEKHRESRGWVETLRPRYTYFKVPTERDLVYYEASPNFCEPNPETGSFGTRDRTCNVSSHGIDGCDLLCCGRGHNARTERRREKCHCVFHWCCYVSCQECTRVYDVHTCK

[33] = Shn3 transcript knock-down in Clone20 cells – cell-based, qPCR, cherry-pick, dose response (AID 743415); type: functional
[34] = Shn3 3'UTR reporter signal decrease – cell-based, Clone20 osteoblasts, firefly luciferase, cherry-pick, set 2, Schnurri-3 inhibitor project, dose response (AID 720490); type: functional;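 also: actives lower the luminescence signal as inhibitors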

With `O=C1C(Nc2ccc(Cl)cc2)=C(N2CCCC2)C(=O)c2ccccc21` the AC50 [1] was 31.6 µM (active), the AC50 [2] was 39.2 µM (active) and the AC50 [3] was > 70 µM (inactive). For the same molecule, the AC50 [4] was 39.2 µM (active), the AC50 [5] was 1.77 µM (active) and the AC50 [6] was 41.5 µM (active). The AC50 [7] was 50.9 µM (active) and the AC50 [8] was 3.48 µM (active).

For `Oc1c(Cl)cc(Cl)cc1CNc1nc2ccccc2[nH]1`, the AC50 [9] was 587 nM (active), the IC50 [10] was 488 nM (active) and the IC50 [11] was 83.3 µM (inactive). For the same molecule, the IC50 [12] was 661 nM (active) and the IC50 [13] was > 83.3 µM (inactive).

For `O=C(Nc1cccc(F)c1)N1C[C@@H]2N[C@H](C1)[C@@H]2c1ccc(-c2ccc(F)cc2)cc1`, the AC50 [14] was 19.5 µM (active), the AC50 [15] was 34.3 µM (active) and the AC50 [16] was 18.5 µM (active). For the same molecule, the AC50 [17] was 17.7 µM (active), the AC50 [18] was 22.4 µM (active) and the AC50 [19] was 65.7 µM (active).

For `COc1ccccc1N1CCN(c2ncc(C(=O)N3CCN(c4cccc(Cl)c4)CC3)c3ccccc23)CC1`, the EC50 [20] was 4.31 µM (active), the IC50 [21] was 5.68 µM (active) and the IC50 [22] was > 20 µM (inactive). The EC50 [23] was 9.31 µM (active), the IC50 [24] was 4.46 µM (active) and the EC50 [25] was 2.29 µM (active). For the same molecule, the IC50 [26] was > 20 µM (inactive), the EC50 [27] was > 30 µM (not active) and the AC50 [28] was 9.46 µM (active). The AC50 [29] was 3.93 µM (active), the AC50 [30] was 572 nM (active) and the EC50 [31] was > 53 µM (inactive). The IC50 [32] was 1.47 µM (active), the AC50 [33] was 30 µM (active) and the AC50 [34] was 1.81 µM (active).
